Experimental data: patent publication US9730449B2, “Thiazole compound and its use in pest control” (Sumitomo Chemical Company, Limited, priority 2014, dated 2017)
Where two headings read alike, the source gives them in different places.

What was measured:
[1] = system: gambiae sensu stricto (Anopheles gambiae); test: whole plant or invertebrate; assay type: in vivo; conditions: 48 h, 167 ppm in acetone, 0.3 μl topically applied to chest back plate of females, 2 days after the topical application
Method: 10 mg of each of the compounds (1a-1), (1a-2), (1a-4), (1a-5), (1a-6), (1a-7), (1a-19), (1a-20), (1a-22), (1a-23), (1a-32), (1a-38), (1a-39), (1a-77), (1b-1), and (1b-2) of the present invention was dissolved in 3 ml of acetone. Test solutions were prepared by diluting each of the above solutions 20-fold with acetone (concentration of active ingredients of 167 ppm). […] The test was performed on 10 imagos per group, after the topical application, the imagos were transferred to a cup, and 5 percent sugar water was given.

[2] = system: German cockroaches (Blattella germanica); test: whole plant or invertebrate
Text: 2 male imagoes of German cockroaches (Blattella germanica) were released in the polyethylene cup, which was then covered with a lid.

[3] = system: common house mosquito (Culex pipiens pallens); test: whole plant or invertebrate; assay type: in vivo; conditions: concentration of active ingredients of 3.5 ppm in ion exchange water, final-instar larvae, after 24 hours
[4] = system: German cockroaches (Blattella germanica); conditions: 500 ppm, 0.7 ml on filter paper, sucrose bait; male imagoes; after 24 hours
[5] = system: two-spotted spider mite (Tetranychus urticae); test: Test Example 6: kidney bean spray, two-spotted spider mite controlling value; assay type: in vivo; conditions: 500 ppm sprayed on kidney beans; female imagoes; 25° C.; 7 days after the treatment
Text: 10 female imagoes of two-spotted spider mite (Tetranychus urticae) were released on kidney beans immediately after the primary leaf development. The next day, the test solution was sprayed at an amount in which the test solution dripped, using a spray gun. […] Controlling value (%)=(1−the number of surviving female imagoes in a treatment section/the number of surviving female imagoes in a non-treatment section)×100

[6] = system: diamondback moths (Plutella xylostella); conditions: 500 ppm test solution, 20 ml scattered on cabbage; second-instar larvae; 25° C.; after 5 days
Method: 20 ml of the above-described test solution was scattered on cabbages (Brassicae oleracea) in a third- or fourth-leaf stage. After air-drying the test solution, the overground portion was cut, collected, and accommodated in a polyethylene cup (capacity of 100 ml) together with 5 second-instar larvae of diamondback moths (Plutella xylostella), followed by storing at 25° C.

[7] = system: common houseflies (Musca domestica); conditions: 500 ppm, 0.7 ml on filter paper, sucrose bait; female imagoes; after 24 hours
Text: 10 female imagoes of common houseflies (Musca domestica) were released in the polyethylene cup, which was then covered with a lid.

COc1ccccc1COc1ncc(SC)s1 [Compound 1a-1, 2-(2-methoxybenzyloxy)-5-methylthiothiazole] showed a mortality at 167 ppm [1] of no less than 90%, a mortality at 500 ppm ([2]; Blattella germanica, 144 h) of 100% and a mortality at 3.5 ppm [3] of no less than 90%.

Work on CSc1cnc(OCc2ccccc2C)s1 [Compound 1a-2] yielded a Mortality [4] of 100%.

Molecule COc1ccccc1COc1nc(C)c(SC)s1 [Compound 1a-6] has a Controlling value [5] of no less than 90%.

CSc1cnc(OCc2cccnc2)s1 [Compound 1a-9] was tested, and the Mortality [6] was no less than 80%.

In the case of CSc1cnc(OCc2c(C)cccc2F)s1 [Compound 1a-16], the Mortality [4] is reported as 100%.

CSc1cnc(OCc2cc(F)ccc2C)s1 [Compound 1a-19] was tested, and the Mortality ([2]; 500 ppm, 0.7 ml on filter paper, sucrose bait, male imagoes, after 6 days) was 100%.

CSc1cnc(OCc2cscc2C)s1 [Compound 1a-20] gave a Mortality [4] of 100%.

Work on COc1ccc(F)cc1COc1ncc(SC)s1 [Compound 1a-23] yielded a Mortality [7] of 100%.

COc1ccc(OC)c(COc2ncc(SC)s2)c1 [Compound 1a-24] gave a Mortality [7] of 100%.

CSc1cnc(OCc2ccoc2)s1 [Compound 1a-75] was tested, and the Mortality [7] was 100%.

Work on CCSc1cnc(OCc2ccccc2C)s1 [Compound 1a-201, 2-(2-methylbenzyloxy)-5-ethylthiothiazole] yielded a mortality at 3.5 ppm [3] of no less than 90%.

COc1ccccc1COc1ncc([S+](C)[O-])s1 (centres unmarked) [Compound 1b-1, 2-(2-methoxybenzyloxy)-5-methylsulfinylthiazole] showed a mortality at 167 ppm [1] of no less than 90%.
